Reference: PMC6979384, “Characterization of the plant homeodomain (PHD) reader family for their histone tail interactions” (Epigenetics & Chromatin, 2020)
Blank lines part the entries; values can stand above or below the substance they belong to.

Experiments:
Assay in all cases: Histone peptide microarray
Type in all cases: binding, human
MLL5 = test system: MLL5
Outline: (§1)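 GST-PHD reader, 0.5 μM, probed on 293-peptide histone array (single/combinatorial PTMs); optimized array protocol; signal = mean ± SD, n = 4.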

PHF21A = settings: PHF21A
Outline: as §1

BPTF (PB) = settings: BPTF (PB)
Outline: as §1

PHF2 = test system: PHF2
Outline: as §1

KDM4C (TTP) = settings: KDM4C (TTP)
Outline: as §1

KDM5A (1) = settings: KDM5A (1)
Outline: as §1

CHD4 (PPCC) = settings: CHD4 (PPCC)
Outline: as §1

ING4 = test system: ING4
Outline: as §1

PHF8 = test system: PHF8
Outline: as §1

KDM7A = settings: KDM7A
Outline: as §1

KDM5B (1) = settings: KDM5B (1)
Outline: as §1

KDM5B (3) = settings: KDM5B (3)
Outline: as §1

TAF3 = test system: TAF3
Outline: as §1

PHRF1 (RP) = settings: PHRF1 (RP)
Outline: as §1

PHF13 = test system: PHF13
Outline: as §1

TRIM66 (PB) = settings: TRIM66 (PB)
Outline: as §1

DPF2 (PPC2W2) = settings: DPF2 (PPC2W2)
Outline: as §1

ING3 = test system: ING3
Outline: as §1

CHD5 (PPCC) = settings: CHD5 (PPCC)
Outline: as §1

PHF23 = test system: PHF23
Outline: as §1

ING1 = test system: ING1
Outline: as §1

AIRE (PP) = settings: AIRE (PP)
Outline: as §1

BAZ2B = settings: BAZ2B
Outline: as §1

MORC3 (CW) = settings: MORC3 (CW)
Outline: as §1

RAG2 = test system: RAG2
Outline: as §1

SP140L = settings: SP140L
Outline: as §1

ING2 = test system: ING2
Outline: as §1

KDM5A (3) = settings: KDM5A (3)
Outline: as §1

DIDO1 = test system: DIDO1
Outline: as §1

CHD5 (PCC) = settings: CHD5 (PCC)
Outline: as §1

ING5 = test system: ING5
Outline: as §1

[1] = GST-tagged, arrays performed twice, n of 4
[2] = sheet "Array Heatmap", each array performed twice, total n = 4

- Array Heatmap value (peptide array binding signal) (MLL5; MLL5, GST-tagged, arrays performed twice, n of 4): 0.5602
- Array Heatmap value (peptide array binding signal) (PHF21A; [1]): 0.4731
- Array Heatmap value (peptide array binding signal) (BPTF (PB); [1]): 0.3596
- Array Heatmap value (peptide array binding signal) (PHF2; PHF2, GST-tagged, arrays performed twice, n of 4): 0.5459
- Array Heatmap value (peptide array binding signal) (KDM4C (TTP); [1]): 0.4961
- Array Heatmap value (peptide array binding signal) (KDM5A (1); [1]): 0.4894
- Array Heatmap value (peptide array binding signal) (CHD4 (PPCC); [1]): 0.5911
- Array Heatmap value (peptide array binding signal) (ING4; ING4, GST-tagged, arrays performed twice, n of 4): 0.4623
- Array Heatmap value (peptide array binding signal) (PHF8; PHF8, GST-tagged, arrays performed twice, n of 4): 0.3497
- Array Heatmap value (peptide array binding signal) (KDM7A; [1]): 0.3751
- Array Heatmap value (peptide array binding signal) (KDM5B (1); [1]): 0.6899
- Array Heatmap value (peptide array binding signal) (KDM5B (3); [1]): 0.4828
- Array Heatmap value (peptide array binding signal) (TAF3; TAF3, GST-tagged, arrays performed twice, n of 4): 0.2714
- Array Heatmap value (peptide array binding signal) (PHRF1 (RP); [1]): 0.4519
- Array Heatmap value (peptide array binding signal) (PHF13; PHF13, GST-tagged, arrays performed twice, n of 4): 0.6346
- Array Heatmap value (peptide array binding signal) (TRIM66 (PB); [1]): 0.6317
- Array Heatmap value (peptide array binding signal) (DPF2 (PPC2W2); [1]): 0.7036
- Array Heatmap value (peptide array binding signal) (ING3; ING3, GST-tagged, arrays performed twice, n of 4): 0.4959
- Array Heatmap value (peptide array binding signal) (CHD5 (PPCC); [1]): 0.5645
- Array Heatmap value (peptide array binding signal) (PHF23; PHF23, GST-tagged, arrays performed twice, n of 4): 0.5388
- Array Heatmap value (peptide array binding signal) (ING1; ING1, GST-tagged, arrays performed twice, n of 4): 0.5601
- Array Heatmap value (peptide array binding signal) (AIRE (PP); [1]): 0.4538
- Array Heatmap value (peptide array binding signal) (BAZ2B; [1]): 0.4745
- Array Heatmap value (peptide array binding signal) (MORC3 (CW); [1]): 0.3556
- Array Heatmap value (peptide array binding signal) (RAG2; RAG2, GST-tagged, arrays performed twice, n of 4): 0.2439
- Array Heatmap value (peptide array binding signal) (SP140L; [1]): 0.3554
- Array Heatmap value (peptide array binding signal) (ING2; ING2, GST-tagged, arrays performed twice, n of 4): 0.6078
- Array Heatmap value (peptide array binding signal) (KDM5A (3); [1]): 0.4289
- Array Heatmap value (peptide array binding signal) (DIDO1; DIDO1, GST-tagged, arrays performed twice, n of 4): 0.7412
- Array Heatmap value (peptide array binding signal) (CHD5 (PCC); [1]): 0.8362
- Array Heatmap value (peptide array binding signal) (ING5; ING5, GST-tagged, arrays performed twice, n of 4): 0.3615
Substance: H3K36ac (21-44): H3 21-44

Substance: H3K4me3R8me2a: H3 1-20
- Array Heatmap value (peptide array signal) (MLL5; MLL5, sheet "Array Heatmap", each array performed twice, total n = 4): 0.5116
- Array Heatmap value (peptide array signal) (PHF21A; [2]): 0.4017
- Array Heatmap value (peptide array signal) (BPTF (PB); [2]): 0.2864
- Array Heatmap value (peptide array signal) (PHF2; PHF2, sheet "Array Heatmap", each array performed twice, total n = 4): 0.5013
- Array Heatmap value (peptide array signal) (KDM4C (TTP); [2]): 0.39
- Array Heatmap value (peptide array signal) (KDM5A (1); [2]): 0.3616
- Array Heatmap value (peptide array signal) (CHD4 (PPCC); [2]): 0.4923
- Array Heatmap value (peptide array signal) (ING4; ING4, sheet "Array Heatmap", each array performed twice, total n = 4): 0.3653
- Array Heatmap value (peptide array signal) (PHF8; PHF8, sheet "Array Heatmap", each array performed twice, total n = 4): 0.377
- Array Heatmap value (peptide array signal) (KDM7A; [2]): 0.3319
- Array Heatmap value (peptide array signal) (KDM5B (1); [2]): 0.5478
- Array Heatmap value (peptide array signal) (KDM5B (3); [2]): 0.4037
- Array Heatmap value (peptide array signal) (TAF3; TAF3, sheet "Array Heatmap", each array performed twice, total n = 4): 0.2483
- Array Heatmap value (peptide array signal) (PHRF1 (RP); [2]): 0.4161
- Array Heatmap value (peptide array signal) (PHF13; PHF13, sheet "Array Heatmap", each array performed twice, total n = 4): 0.5067
- Array Heatmap value (peptide array signal) (TRIM66 (PB); [2]): 0.5377
- Array Heatmap value (peptide array signal) (DPF2 (PPC2W2); [2]): 0.6137
- Array Heatmap value (peptide array signal) (ING3; ING3, sheet "Array Heatmap", each array performed twice, total n = 4): 0.4064
- Array Heatmap value (peptide array signal) (CHD5 (PPCC); [2]): 0.4208
- Array Heatmap value (peptide array signal) (PHF23; PHF23, sheet "Array Heatmap", each array performed twice, total n = 4): 0.5109
- Array Heatmap value (peptide array signal) (ING1; ING1, sheet "Array Heatmap", each array performed twice, total n = 4): 0.5333
- Array Heatmap value (peptide array signal) (AIRE (PP); [2]): 0.3453
- Array Heatmap value (peptide array signal) (BAZ2B; [2]): 0.3334
- Array Heatmap value (peptide array signal) (MORC3 (CW); [2]): 0.4123
- Array Heatmap value (peptide array signal) (RAG2; RAG2, sheet "Array Heatmap", each array performed twice, total n = 4): 0.2561
- Array Heatmap value (peptide array signal) (SP140L; [2]): 0.3243
- Array Heatmap value (peptide array signal) (ING2; ING2, sheet "Array Heatmap", each array performed twice, total n = 4): 0.6387
- Array Heatmap value (peptide array signal) (KDM5A (3); [2]): 0.5067
- Array Heatmap value (peptide array signal) (DIDO1; DIDO1, sheet "Array Heatmap", each array performed twice, total n = 4): 0.6362
- Array Heatmap value (peptide array signal) (CHD5 (PCC); [2]): 0.6343
- Array Heatmap value (peptide array signal) (ING5; ING5, sheet "Array Heatmap", each array performed twice, total n = 4): 0.2674
